Data published in article PMC11591356, “Immunomodulatory Effects of the Tobacco Defensin NaD1” (Antibiotics, 2024).

What was measured:
PBMCs [1] = conditions: cited from earlier work
Procedure: (§1) The human cathelicidin LL-37 has been previously shown to have a toxic effect on PBMCs at the concentration of 12 µM [20].

PBMCs [2] = test: Cytotoxicity assay, resazurin method, PBMCs; assay type: cell-based, human; conditions: PBMCs, peptide 2.5 µM, 24 h, resazurin
Description: Peripheral blood mononuclear cells (PBMCs) from healthy donors were purchased from American Type Culture Collection (ATCC PCS-800-011). Primary monocytes were isolated from PBMCs by adherence to the plastic surface. For that, PBMCs were thawed, resuspended in RPMI-1640 culture medium (Corning, Corning, NY, USA) without serum at a concentration of 2 × 10^6 cells/mL, seeded into the wells of a 24-well plate and placed in a humidified CO2-intubator (CellXpert C170i, Eppendorf, Hamburg, Germany) for 1 h. After that, non-adherent cells were removed from the wells and attached monocytes were thoroughly washed with PBS and cultured in a CO2-intubator in complete RPMI-1640 containing 10% human serum (HS Type AB, Capricorn Scientific, Ebsdorfergrund, Germany) and 1×antibiotic-antimycotic (1×AA) solution (Sigma, St. Louis, MO, USA).
(§2) The cytotoxic effects of the tobacco defensin NaD1 towards PBMCs or Caco-2 cells were investigated in 96-well plates using the resazurin method as previously described. In brief, 4 × 10^5 per well Caco-2 cells not in a monolayer as well as Caco-2 cells in a monolayer in DMEM/F12 (1:1) medium with 10% FBS or 2 × 10^6 PBMCs per well in RPMI-1640 also with 10% FBS were incubated with serial dilutions of NaD1 at final concentrations from 0.39 to 50 μM or from 2.1 to 180 μM for 24 h. After that, resazurin (Sigma, St. Louis, MO, USA) was added at a final concentration of 70 µM and the plates were incubated overnight (16–18 h). Untreated cells and cells treated by non-ionogenic detergent Triton X-100 were used as negative and positive controls, respectively. […] The cell viability was estimated by resorufin fluorescence registered at […] via the following equation: cell viability (%) = (Fsample/Fcontrol) × 100%. Experiment was carried out twice in duplicate.

[3] = system: Caco-2 cells in a monolayer; test: Cytotoxicity assay, resazurin method, Caco-2 cells in a monolayer; assay type: cell-based, human; conditions: Caco-2 monolayer, peptide 0.8 µM, 24 h
Procedure: as §2

[4] = system: THP-1-derived macrophages; test: ELISA assay of cytokine production by THP-1-derived macrophages; assay type: cell-based, human
Procedure: THP-1 (ATCC TIB-202) cells were thawed and cultured in complete RPMI-1640, containing 10% FBS (Capricorn Scientific) and 1×AA solution in CO2-intubator. Monocytic THP-1 cells were differentiated into resting M0 macrophages by stimulation for 24 h with 100 ng/mL phorbol 12-myristate 13-acetate (PMA) in complete RPMI-1640. Then, the attached macrophage-like cells were washed out with culture medium without serum and incubated for another 48 h in PMA-free complete culture medium with 10% HS and 1×AA solution.
THP-1-derived macrophages were seeded into the wells of a 24-well plate at a density of 2.7 × 10^5 cells/well in complete RPMI-1640 with 10% HS and 1×AA solution. Then, 24 h later, the culture medium was replaced by the fresh complete RPMI-1640 containing lipopolysaccharide from Escherichia coli 0111:B4 (LPS, Sigma, St. Louis, MO, USA) or zymosan from the cell wall of Saccharomyces cerevisiae (Serva, Heidelberg, Germany) at concentrations of 1 or 10 μg/mL, respectively; antimicrobial peptides NaD1, Psd1, LL-37 or HBD2 at concentrations of 2 or 0.2 µM; and combinations of antimicrobial peptides with LPS or zymosan at the same concentrations. Insoluble zymosan was resuspended in sterile water and sonicated twice for 30 s; after that, the stock solution was heated to 80 °C for 20 min. Peptides were added 2 h before stimulation with LPS and zymosan. After that, PAMPs solutions were added and the cells were cultured for 24 h. Complete RPMI-1640 only was used in the control wells. Culture supernatants were collected and stored at −70 °C prior to the cytokines’ assessment.
The production of pro- and anti-inflammatory cytokines IL-1β, IL-6, TNF-α and IL-10 by stimulated and non-stimulated THP-1-derived macrophages were estimated by using ELISA kits (Vector-Best, Koltsovo, Russia). Briefly, 96-well plates with adsorbed monoclonal antibodies to the corresponding cytokine were used. Undiluted or diluted 5, 20 or 80 times in the case of IL-10, TNF-α and IL-1β or IL-6, respectively, culture supernatants from the wells of 24-well plates were taken for analysis. Biotinylated polyclonal antibodies to cytokines, streptavidin conjugated to HRP and TMB substrate were further used for the detection of immune complexes. A panel of calibration solutions containing different concentrations of cytokines was used in each experiment. Experiments were performed using two biological and two technical repeats. The release of the cytokines in the control and experimental samples was compared with an unpaired two-sample t-test using GraphPad Prism v.8.0.1 (GraphPad Software, Inc., San Diego, CA, USA). The p values ≤ 0.05 were considered significant.

THP-1 cells = conditions: peptide 1.2 µM; cited from earlier work
Procedure: as §1

primary monocytes = conditions: cited from earlier work
Description: Then, primary human monocytes were chosen to study the immunomodulatory properties of NaD1. Monocytes circulating in the blood can be recruited and extravasated into tissues during inflammatory processes. Moreover, the recruitment of monocytes to the sites of inflammation is critical for host defense not only when infected, but also in the case of sterile injury. In the case of monocytes, NaD1 at the same concentration induced a decrease of chemotactic CXCL1/GROα and CXCL8/IL-8 levels and elevation of the fibroblast growth factor 2 (FGF-2) production; however, these changes were ...

mature DCs = conditions: previous study; cited from earlier work
Description: In the next step of this work, we studied the immunomodulatory properties of NaD1 by using primary monocytes and monocyte-derived immature dendritic cells (DCs). DCs represent a type of antigen-presenting cells, playing a key role in adaptive immune response. Their primary functions involve phagocytosis, processing and presentation of captured antigens to T cells. In most tissues, they are present in a state known as “immature” DCs, unable to activate and stimulate T lymphocytes; their activation and maturation typically starts when DCs identify danger signals. This is why immature DCs ...

[5] = system: Caco-2 polarized monolayer; conditions: cited from earlier work
[6] = peptide 2 µM 2 h before LPS 1 μg/mL, 24 h, vs LPS alone
[7] = peptide 2 µM 2 h before zymosan 10 μg/mL, 24 h, vs zymosan alone

## CC[C@H](C)[C@H](NC(=O)[C@H](CCCCN)NC(=O)[C@H](CCC(=O)O)NC(=O)[C@H](CCCCN)NC(=O)[C@H](CO)NC(=O)[C@H](CCCCN)NC(=O)[C@H](CCCNC(=N)N)NC(=O)[C@H](Cc1ccccc1)NC(=O)[C@H](Cc1ccccc1)NC(=O)[C@H](CC(=O)O)NC(=O)CNC(=O)[C@H](CC(C)C)NC(=O)[C@@H](N)CC(C)C)C(=O)NCC(=O)N[C@@H](CCCCN)C(=O)N[C@@H](CCC(=O)O)C(=O)N[C@@H](Cc1ccccc1)C(=O)N[C@@H](CCCCN)C(=O)N[C@@H](CCCNC(=N)N)C(=O)N[C@H](C(=O)N[C@H](C(=O)N[C@@H](CCC(N)=O)C(=O)N[C@@H](CCCNC(=N)N)C(=O)N[C@H](C(=O)N[C@@H](CCCCN)C(=O)N[C@@H](CC(=O)O)C(=O)N[C@@H](Cc1ccccc1)C(=O)N[C@@H](CC(C)C)C(=O)N[C@@H](CCCNC(=N)N)C(=O)N[C@@H](CC(N)=O)C(=O)N[C@@H](CC(C)C)C(=O)N[C@H](C(=O)N1CCC[C@H]1C(=O)N[C@@H](CCCNC(=N)N)C(=O)N[C@H](C(=O)N[C@@H](CCC(=O)O)C(=O)N[C@@H](CO)C(=O)O)[C@@H](C)O)C(C)C)[C@@H](C)CC)C(C)C)[C@@H](C)CC [LL-37]
PBMCs [1]; peptide 12 µM
  Toxic effect on PBMCs: toxic effect

## CC[C@H](C)[C@H](NC(=O)CN)C(=O)NCC(=O)N[C@@H](C)C(=O)N[C@H](C(=O)N[C@@H](CC(C)C)C(=O)N[C@@H](CCCCN)C(=O)N[C@H](C(=O)N[C@@H](CC(C)C)C(=O)N[C@H](C(=O)N[C@H](C(=O)NCC(=O)N[C@@H](CC(C)C)C(=O)N1CCC[C@H]1C(=O)N[C@@H](C)C(=O)N[C@@H](CC(C)C)C(=O)N[C@H](C(=O)N[C@@H](CO)C(=O)N[C@@H](Cc1c[nH]c2ccccc12)C(=O)N[C@H](C(=O)N[C@@H](CCCCN)C(=O)N[C@@H](CCCNC(=N)N)C(=O)N[C@@H](CCCCN)C(=O)N[C@@H](CCCNC(=N)N)C(=O)N[C@@H](CCC(N)=O)C(=O)N[C@@H](CCC(N)=O)C(N)=O)[C@@H](C)CC)[C@@H](C)CC)[C@@H](C)O)[C@@H](C)O)C(C)C)C(C)C [melittin, reference compound]
PBMCs [2]
  Cell death: approximately 50%
[3]
  Cell viability: a decrease in cell viability was observed

## HBD2: Recombinant human β-defensin 2 (UNIPROT O15263), expressed in E. coli (GIGDPVTCLKSGAICHPVFCPRRYKQIGTCGLPGTKCCKKP; UniProt O15263 24-64, looked up) [reference compound]
[4]; [6]
  LPS-induced IL-6 production: increased the LPS-stimulated production of IL-6
[4]; [7]
  Zymosan-induced IL-6 production: slight decrease in the zymosan-induced production of IL-6
THP-1 cells
  Level of THP-1 cell death: did not increase the level of THP-1 cell death

## Psd1: Pea defensin Psd1 (UNIPROT P81929), obtained as described previously (KTCEHLADTYRGVCFTNASCDDHCKNKAHLISGTCHNWKCFCTQNC; UniProt P81929 1-46, looked up) [reference compound]
[4]; [6]
  LPS-induced IL-6 production: increased the LPS-stimulated production of IL-6
  LPS-induced IL-10 production: increased the LPS-induced production of IL-10
  LPS-induced TNF-α secretion: reduced the LPS-induced secretion of TNF-α
[4]; [7]
  IL-1β production in the presence of zymosan: slightly reduced the production of IL-1β
  IL-10 production in the presence of zymosan: increased the production of IL-10 in the presence of zymosan
[4]; peptide 2 µM alone, vs unstimulated control
  IL-10 production, unstimulated macrophages: induced the production of IL-10
Primary monocytes
  Production of chemokines by monocytes: increased the production of both CCL3/MIP-1α and CCL4/MIP-1β
PBMCs [1]; peptide 50 µM
  Cytotoxic activity against PBMCs: no cytotoxic activity
Mature DCs
  Production of cytokines and chemokines by mature DCs: induced an elevation of the production of cytokines IL-1RA, IL-5, IL-6, IL-10, IL-12, IL-15, IL-27 and TNFα and chemokines CXCL8/IL-8, CCL2/MCP-1 and CCL7/MCP-3
[5]; Psd1 value from earlier work
  Papp A→B compared with NaD1: nearly the same
[5]
  Papp, secretory versus absorptive direction: apparent permeability coefficients were higher in the secretory direction than in the absorptive one
